Laboratory results as given in paper PMC8428848, “Ancient role of sulfakinin/cholecystokinin-type signalling in inhibitory regulation of feeding processes revealed in an echinoderm” (eLife, 2021).
“And” between values parts separate entries of the source, which are not always exact repeats. Equal entries are not always repeated. Square brackets hold non-standard residues; d marks the D form. Peptide text beside a SMILES is read from it. sY = N[C@@H](Cc1ccc(OS(=O)(=O)O)cc1)C(=O)O; pGlu = O=C1CC[C@@H](C(=O)O)N1

Columns and labels:
Asterias rubens [1] = test: In vivo retraction of the everted cardiac stomach after injection; settings: for cardiac stomach retraction in vivo: injection of 10 nmol (10 μl of 1 mM) into perivisceral coelom, eversion induced with 2% MgCl2 in seawater, 6 min; for reduction in the area of cardiac stomach everted: within 360 s after injection of 10 mol (10 µl 1 mM), normalized to area at T0, n = 6 (ArSK/CCK1), 6 (ArSK/CCK2), 8 (ArSK/CCK2(ns))
Procedure: Therefore, experiments were performed to investigate if ArSK/CCK1 and ArSK/CCK2 also trigger cardiac stomach retraction in A. rubens. Twenty specimens of A. rubens, which had been withheld from a food supply for 1 week, were placed in a glass tank containing 2% magnesium chloride (MgCl2; Sigma-Aldrich, Gillingham, UK) dissolved in seawater, which acts as a muscle relaxant in marine invertebrates ([Mayer, 1909]). This treatment conveniently and reproducibly causes eversion of the cardiac stomach in A. rubens, typically within a period of ~30 min ([Semmens et al., 2013]). Hamilton 75 N 10 μl syringes (Sigma-Aldrich, Gillingham, UK) were used to inject test compounds into the perivisceral coelom of animals, inserting the needle through the aboral body wall of the arms proximal to the junctions with the central disk region. Care was taken to inject neuropeptides (ArSK/CCK1, ArSK/CCK2 and ArSK/CCK2(ns)) or distilled water (control) into the perivisceral coelom and not into the cardiac stomach. All animals were first injected with 10 μl of distilled water (control) and video-recorded for 6 min. The same animals were then injected with 10 μl of 1 mM peptide (10 nmol) and video-recorded for 6 min. Static images from video recordings were captured at 30 s intervals from the time of injection. Then the two-dimensional area of everted cardiac stomach was measured from the images using the ImageJ software (version 1.0; http://rsb.info.nih.gov/ij) and normalized as a percentage of the area of cardiac stomach everted at the time of injection (T0).

Asterias rubens [2] = test: In vivo feeding behaviour on mussels after injection; settings: for time to touch (first contact with a mussel) / time to enclose (time to adopt a feeding posture): 10 nmol (10 µl of 1 mM) injected; for time to touch (first contact with a mussel) / time to enclose (time to adopt a feeding posture) / starfish proceeding to a feeding posture after the first touch: compared with water-injected controls; for time to enclose (time to adopt a feeding posture): p = 0.0523 ArSK/CCK1, p < 0.05 ArSK/CCK2; for starfish proceeding to a feeding posture after the first touch / number of advances to touch the mussel / number of starfish that did not initiate feeding within the 5 hr (300 min) observation period: 10 nmol injected; for starfish proceeding to a feeding posture after the first touch: Fisher's exact test; for number of advances to touch the mussel: data not shown; for number of starfish that did not initiate feeding within the 5 hr (300 min) observation period: n = 11 ArSK/CCK1, n = 19 ArSK/CCK2; for time to enclose / time to touch: individual animals
Source text: Here, the same methods employed by [Tinoco et al., 2018] were used to investigate if ArSK/CCK1 and/or ArSK/CCK2 affect feeding behaviour in starfish. […] Then, starfish were fasted for 24 days and transferred to and kept individually in Plexiglas aquaria, as described previously ([Tinoco et al., 2018]). […] The time taken for starfish to make first contact with a mussel (tube feet touching the mussel or time to touch the mussel), the number of attempts to touch, as well as the time to enclose the mussel (indicated by a feeding posture) were recorded. Starfish that were feeding after 24 hr were included in data analysis and any starfish in the control or test group that had not fed on a mussel after 24 hr were discarded from data analysis.

[3] = system: affinity-purified rabbit antibodies to ArSK/CCK1; test: ELISA specificity test of affinity-purified antibodies to ArSK/CCK1; type: binding; settings: TEA fraction diluted 1:10; peptide 0.1 nmol (100 µl of 1 µM); mean of six replicates
Source text: To generate antibodies to ArSK/CCK1, an N-terminally truncated peptide analog of ArSK/CCK1 with the addition of a reactive N-terminal lysine residue was synthesized (KY(SO3H)GHGLFW-NH2 , Peptide Protein Research Ltd, Fareham, UK). To generate antibodies to ArSK/CCKR, a peptide corresponding to the C-terminal 15 amino acids of ArSK/CCK-R with addition of an N-terminal reactive lysine residue was synthesized (KPSPTNYTNVSSDSSV, Peptide Protein Research Ltd, Fareham, UK). These peptides were conjugated to porcine thyroglobulin (Sigma-Aldrich, Gillingham, UK) as a carrier protein using 5% glutaraldehyde (Sigma-Aldrich, Gillingham, UK) in phosphate buffer (0.1 M; pH 7.2) and the conjugate was used for immunisation of a rabbit for ArSK/CCK1 (70-day protocol; Charles River Biologics, Romans, France) and a guinea pig for ArSK/CCKR (56-day protocol; Charles River Biologics, Romans, France). The antigens were emulsified in Freund’s complete adjuvant for primary immunisations (~100 nmol antigen peptide) and in Freund’s incomplete adjuvant for three booster immunisations (~50 nmol antigen peptide). The presence of antibodies to the antigen peptides in post-immunisation serum samples was assessed using an enzyme-linked immunosorbent assay (ELISA), in comparison with pre-immune serum (Figure 5—figure supplement 1a; Figure 6—figure supplement 1). Antibodies to the antigen peptides were purified from the final bleed antiserum by affinity purification using the AminoLink Plus Immobilization Kit (Thermo Fisher Scientific, Waltham, MA), with bound antibodies eluted using glycine elution buffer (6.3 ml of 100 mM glycine [VWR Chemicals, Leicestershire, UK] and 0.7 ml of Tris [1 M, pH = 7.0]) and […] (TEA) elution buffer (6.3 ml of TEA [Sigma-Aldrich, Gillingham, UK] and 0.7 ml of Tris [1 M, pH = 7.0]). Eluates were dialyzed and sodium azide (0.1%) was added for long-term storage of the affinity-purified antibodies at 4°C. The specificity of ArSK/CCK1 antibodies eluted with TEA, which were subsequently used for immunohistochemistry (see below), was assessed by ELISA by testing them at a concentration of 1:10 with the following synthetic peptides (100 µl at a concentration of 1 µM dissolved in carbonate/bicarbonate buffer [25 mM sodium carbonate, 25 mM sodium bicarbonate, pH = 9.8]): ArSK/CCK1, ArSK/CCK2, ArSK/CCK2(ns) and the A. rubens luqin-type peptide ArLQ (Figure 5—figure supplement 1b). The rabbit antiserum to ArSK/CCK1 has been assigned the RRID:AB_2877176 and the guinea pig antiserum to ArSK/CCKR has been assigned the RRID:AB_2891354.

[4] = feeding experiments, count of animals
[5] = feeding experiments, percentage of animals
[6] = 10 µl of 1 mM peptide injected, n = 11

SMILES	cardiac stomach retraction in vivo (Asterias rubens [1])	reduction in the area of cardiac stomach everted (Asterias rubens [1])	time to touch (first contact with a mussel) (Asterias rubens [2])	time to enclose (time to adopt a feeding posture) (Asterias rubens [2])	starfish proceeding to a feeding posture after the first touch (Asterias rubens [2])	number of advances to touch the mussel (Asterias rubens [2])	number of starfish that did not initiate feeding within the 5 hr (300 min) observation period (Asterias rubens [2])	Number of animals, First touch success (Asterias rubens [2]; [4])	Number of animals, Unsuccessful first touch (Asterias rubens [2]; [4])	time to enclose (Asterias rubens [2]; feeding experiments)	time to touch (Asterias rubens [2]; feeding experiments)	Percentage, First touch success (Asterias rubens [2]; [5])	Percentage, Unsuccessful first touch (Asterias rubens [2]; [5])	ELISA reactivity (optical density) with antibodies to ArSK/CCK1 [3]	Number of animals, First touch success (Asterias rubens [2]; [6])	Number of animals, Unsuccessful first touch (Asterias rubens [2]; [6])	Percentage, First touch success (Asterias rubens [2]; [6])	Percentage, Unsuccessful first touch (Asterias rubens [2]; [6])	time to touch (Asterias rubens [2]; one line each, 10 µl of 1 mM peptide injected)	time to enclose (Asterias rubens [2]; one line each, 10 µl of 1 mM peptide injected, observation period 300 min)
CC(C)C[C@H](NC(=O)CNC(=O)[C@H](Cc1ccccc1)NC(=O)CNC(=O)[C@H](Cc1ccc(OS(=O)(=O)O)cc1)NC(=O)[C@H](CCC(N)=O)NC(=O)[C@H](CC(=O)O)NC(=O)[C@H](CC(=O)O)NC(=O)CNC(=O)CN)C(=O)N[C@@H](Cc1ccccc1)C(=O)N[C@@H](Cc1ccccc1)C(N)=O [ArSK/CCK2] (H-GGDDQ[sY]GFGLFF-NH2; N-terminus assumed)	triggered cardiac stomach retraction	> 50%	did not affect	higher	fewer	increased number of advances	two	12	6	11.3 min and 199.3 min and 190.75 min and 21 min and 27 min and 53 min and 49 min and 10 min and 237 min and 12 min and 17 min and 300 min and 77 min and 88 min and 22 min and 50 min and 8 min and 46 min	9 min and 6.9 min and 13.1 min and 13 min and 24 min and 49 min and 46 min and 6 min and 11 min and 7 min and 14 min and 36 min and 3 min and 18 min and 45 min and 4 min and 40 min	67%	33%	do not cross-react	–	–	–	–	–	–
CC(C)C[C@H](NC(=O)CNC(=O)[C@H](Cc1c[nH]cn1)NC(=O)CNC(=O)[C@H](Cc1ccc(OS(=O)(=O)O)cc1)NC(=O)[C@H](CC(=O)O)NC(=O)[C@H](CC(=O)O)NC(=O)[C@@H](NC(=O)[C@H](CCCCN)NC(=O)[C@H](CO)NC(=O)[C@@H]1CCC(=O)N1)C(C)C)C(=O)N[C@@H](Cc1ccccc1)C(=O)N[C@@H](Cc1c[nH]c2ccccc12)C(N)=O [ArSK/CCK1] ([pGlu]SKVDD[sY]GHGLFW-NH2)	triggered cardiac stomach retraction	> 50%	did not affect	only a tendency to an increased time to enclose	fewer	increased number of advances	four	–	–	–	–	–	–	above the OD value for the negative control	4	7	36 Percentage	64 Percentage	10 min and 16 min and 8 min and 4 min and 2 min and 23 min and 19 min and 6 min and 3 min and 22 min and 48 min	215 min and 29 min and 4 min and 24 min and 10 min and 6 min and 144 min
CC(C)C[C@H](NC(=O)CNC(=O)[C@H](Cc1ccccc1)NC(=O)CNC(=O)[C@H](Cc1ccc(O)cc1)NC(=O)[C@H](CCC(N)=O)NC(=O)[C@H](CC(=O)O)NC(=O)[C@H](CC(=O)O)NC(=O)CNC(=O)CN)C(=O)N[C@@H](Cc1ccccc1)C(=O)N[C@@H](Cc1ccccc1)C(N)=O [ArSK/CCK2(ns)] (H-GGDDQYGFGLFF-NH2; N-terminus assumed)	did not trigger cardiac stomach retraction	no effect	–	–	–	–	–	–	–	–	–	–	–	do not cross-react	–	–	–	–	–	–
